Assay results published in patent US8278310B2, “Amine salts of a CRTH2 antagonist” (Actimis Pharmaceuticals, Inc., priority 2007, dated 2012).

Key:
DP1 = molecular target: T1, DP1 (Homo sapiens, UniProt Q13258); assay: Competitive radioligand (3H-PGD2) binding assay using DP1-transfected cells; conditions: CRTH2- versus DP1-transfected cells, FIGS. 20 and 21
T1 sequence (Q13258 1-359): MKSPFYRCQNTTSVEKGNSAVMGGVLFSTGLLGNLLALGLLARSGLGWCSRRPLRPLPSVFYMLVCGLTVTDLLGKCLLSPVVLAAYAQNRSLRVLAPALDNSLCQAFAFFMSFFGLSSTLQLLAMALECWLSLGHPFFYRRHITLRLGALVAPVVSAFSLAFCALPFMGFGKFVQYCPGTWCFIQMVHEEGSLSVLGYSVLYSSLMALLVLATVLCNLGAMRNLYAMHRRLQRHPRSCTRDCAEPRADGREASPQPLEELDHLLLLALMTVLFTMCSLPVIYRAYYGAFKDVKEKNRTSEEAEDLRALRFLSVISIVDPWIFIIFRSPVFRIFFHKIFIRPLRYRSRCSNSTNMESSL
Protocol: The binding affinity and selectivity of the amine salts of 4,6-bis(dimethylamino)-2-(4-(4-(trifluoromethyl)benzamido)benzyl)pyrimidin-5-yl}acetic acid provided herein were evaluated using a competitive radioligand binding assay with stably-transfected cell lines expressing CRTH2 or DP1.
The CRTH2 and DP1 stable cell lines were generated according to the procedure described by Sugimoto et al. (J. Pharm. Exp. Therap. 2003, 305, 347-352). These cell lines were maintained in RPMI 1640 culture medium containing HEPES buffer (25 mM), FCS (10%), L-glutamine (2 mM), penicillin (10 IU/mL), streptomycin (100 μg/mL), and puromycin (1 μg/mL).
Radioligand binding analyses were performed according to the methods of Sugimoto et al. (J. Pharm. Exp. Therap. 2003, 305, 347-352; Eur. J. Pharmacol. 2005, 524, 30-37). The test compounds were dissolved in DMSO at a concentration of 100 mM as stock solutions. Serial dilutions from 10 μM were made in binding buffer prior to assay. Transfected cells were resuspended in binding buffer (50 mM Tris-HCl, 40 mM MgCl2, and 0.1% bovine serum albumin, at pH 7.4) at a concentration of 4×10^6/mL at room temperature. […] Scintillant (50 μL; Microscint™20, Perkin Elmer, Boston, Mass.) was added to each well and the radioactivity was counted on a TopCount (Packard Bioscience, Meriden, Conn.). […]

CRTH2 = molecular target: T2, CRTH2 (Homo sapiens, UniProt Q9Y5Y4); assay: Competitive radioligand (3H-PGD2) binding assay using CRTH2-transfected cells; conditions: 1 nM 3H-PGD2, FIG. 20
T2 construct: expressed in transfected cells
T2 sequence (Q9Y5Y4 1-395): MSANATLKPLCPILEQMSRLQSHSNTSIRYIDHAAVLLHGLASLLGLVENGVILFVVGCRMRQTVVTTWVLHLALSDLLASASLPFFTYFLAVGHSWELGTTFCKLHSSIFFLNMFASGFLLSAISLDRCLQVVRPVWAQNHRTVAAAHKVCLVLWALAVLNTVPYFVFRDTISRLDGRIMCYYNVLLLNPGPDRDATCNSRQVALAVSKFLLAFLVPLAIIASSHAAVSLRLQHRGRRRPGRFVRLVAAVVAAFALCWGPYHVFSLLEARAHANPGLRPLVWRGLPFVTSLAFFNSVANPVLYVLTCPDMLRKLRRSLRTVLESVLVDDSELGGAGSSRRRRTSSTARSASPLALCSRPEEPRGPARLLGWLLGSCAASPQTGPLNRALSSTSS
Protocol: The surface expression of CRTH2 on the transfected cell lines was monitored periodically during culture and prior to each competitive radioligand binding assay. […] The cells were then washed in 2 mL of FACS buffer (PBS containing 1% BSA (Fraction V) and 0.1% sodium azide. The cells were subsequently incubated on ice with a FITC-conjugated anti-rat antibody (goat anti-rat Ig-FITC). After washed with cold FACS buffer, the cells were analyzed using a FACScan II analyzer and CellQuest software, both from Becton Dickinson (Mountain View, Calif.).
The test compounds were dissolved in DMSO at a concentration of 100 mM as stock solutions. Serial dilutions from 10 μM were made in binding buffer prior to assay. Transfected cells were resuspended in binding buffer (50 mM Tris-HCl, 40 mM MgCl2, and 0.1% bovine serum albumin, at pH 7.4) at a concentration of 4×10^6/mL at room temperature. Transfected cells were then seeded in U-bottom polypropylene 96-well plates (Fisher) by adding 50 μL of the cell suspension, followed by addition of 10 μL of ^3H-PGD2, 10 μL of the test compound solutions at a series of concentrations or controls, 30 μL of the binding buffer to bring the final volume to 100 μL. […] Scintillant (50 μL; Microscint™20, Perkin Elmer, Boston, Mass.) was added to each well and the radioactivity was counted on a TopCount (Packard Bioscience, Meriden, Conn.). […]

[1] = Aqueous solubility of the salts from base screening; type: physicochemical; conditions: salt of the acid of Formula I with the named base

Row | binding selectivity for CRTH2 (DP1) | binding affinity for CRTH2 (CRTH2) | Aqueous Solubility at 25° C. [1] [µg/mL] | Compound
1 | bind selectively | high affinity |  | CN(C)c1nc(Cc2ccc(NC(=O)c3ccc(C(F)(F)F)cc3)cc2)nc(N(C)C)c1CC(=O)O [Formula I, {4,6-bis(dimethyl-amino)-2-(4-(4-(trifluoro-methyl)benzamido)benzyl)pyrimidin-5-yl}acetic acid]
2 |  |  | 80 | CN(C)c1nc(Cc2ccc(NC(=O)c3ccc(C(F)(F)F)cc3)cc2)nc(N(C)C)c1CC(=O)O.c1ccc(CNCCNCc2ccccc2)cc1 [Benzathine, Benzathine Salt of {4,6-Bis(dimethylamino)-2-(4-(4-(trifluoromethyl)benzamido)benzyl)pyrimidin-5-yl}Acetic Acid]
3 |  |  | 5400 | piperazine Salt of {4,6-Bis(dimethylamino)-2-(4-(4-(trifluoromethyl)benzamido)benzyl)pyrimidin-5-yl}Acetic Acid
